# Laboratory results taken from patent US20040028684A1, “Cancer diagnosis and assays for screening anti-cancer agents” (priority 2000, published 2004).
# Tested on: RMP1
# Experiment: Rapamycin sensitive signaling on human RMP1: immunoblot of RMP in insulin-induced HEK293 cells
# Format: cell-based
# Conditions: serum-deprived HEK293 cells, 50 nM insulin, after 1 h induction, maintained throughout 8 h, no rapamycin
# Description: Human Embryonic kidney (HEK293) cells are grown in DMEM+10% FCS. Exponentially growing HEK 293 cells are deprived of serum overnight, and then induced with 50 nM insulin in the presence or absence of 20 nM rapamycin. Protein extracts were prepared from cells harvested at 0 h, 1 h, 2 h, 4 h and 8 h after insulin induction. The cell extracts were subjected to SDS-polyacrylamide gel electrophoresis and the resulting gels were analyzed by immuno-blotting using a rabbit polyclonal anti-human RMP antibody. Antibodies specific for RMP are easily prepared using standard laboratory practices. A secondary antibody specific for rabbit antibodies, labelled was used to visualize RMP on the immunoblot using routine procedures.
# In the presence of insulin and amino acids (in the culture medium in this example), RMP is present as a slower migrating form, indicating a phosphorylated form. Under these conditions, the cells continue to synthesize […]. With the addition of rapamycin, RMP is present as a fast migrating form and blocks the synthesis of […]
substance,measurement,value
insulin,slower migrating form of RMP,induced
